{"source": "a melting point compilation (Tetko et al.; mined from patent text by program, amines drawn as free bases though some values may be those of a salt)"}
{"units": {"melting point": "°C"}}
{"smiles": "COC(=O)C(=CN(C)C)C(=O)C=Cc1ccc(Cl)cc1", "melting point": "78 to 80"}
{"smiles": "Cc1noc(NS(=O)(=O)c2ccccc2-c2ccc(-c3ncco3)cc2CNC=O)c1C", "melting point": "105 to 109"}
{"smiles": "Cc1ccc(Oc2ccc(NC(=O)Nc3cc(C(C)(C)C)n[nH]3)cc2)cc1", "melting point": 204}
{"smiles": "CC(C)(C)OC(=O)N1CC2CC(CN(CCCOc3ccc(C#N)cc3O)C2)C1", "melting point": "127 to 130"}
{"smiles": "CCOc1ccc(C(=O)COC(C)=O)cc1", "melting point": "81 to 82"}
{"smiles": "O=c1c(-c2ccccc2)c(Cn2cnc3ccccc32)oc2ccccc12", "melting point": "186 to 191"}
{"smiles": "CCOC(=O)c1csc(-c2cccs2)n1", "melting point": "72 to 73"}
{"smiles": "COc1cc(N2CCC(N3CCN(C(=O)OCc4ccccc4)CC3)CC2)ccc1Nc1ncc2ccc(-c3ccccc3OC)n2n1", "melting point": "75 to 76"}
{"smiles": "CCc1c(Cl)c2ccccn2c1C(=O)c1ccc(O)cc1", "melting point": 179}
{"smiles": "Cc1cc2c(cc1C)C1(O)C(=O)c3ccccc3C1(O)O2", "note": "(stereo not drawn)", "melting point": "198 to 200"}
{"smiles": "C[C@@H]1CN(c2ncc3ncnc(Nc4ccc(F)c(Cl)c4)c3n2)CC[C@@H]1N", "note": "(relative stereo)", "melting point": "161 to 164"}
{"smiles": "NCC1COc2cc(Cl)cc(-c3ccccc3)c2N1", "note": "(stereo not drawn)", "melting point": 92}
{"smiles": "COC(=O)c1cc(Cl)sc1N", "melting point": "99 to 101"}
{"smiles": "CCC(NS(=O)(=O)c1ccc(Cl)cc1)P(=O)(Oc1ccccc1)Oc1ccccc1", "note": "(stereo not drawn)", "melting point": "136 to 138"}
{"smiles": "Nc1ccc(Sc2cccc3nccn23)cc1", "melting point": "167 to 168"}
{"smiles": "COc1cc(OCC(=O)O)c(C)cc1SCCc1ccc(-c2ccc(C(F)(F)F)cc2)cc1", "melting point": "169 to 171"}
{"smiles": "CC(=O)N1CCCC1c1ccnc(-c2nc(=O)c3ccccc3s2)c1", "note": "(stereo not drawn)", "melting point": "206 to 207"}
{"smiles": "ClC(Cl)(Cl)c1nc(-c2ccccc2-c2ccc(CBr)cc2)no1", "melting point": "77 to 79"}
{"smiles": "CCc1ccc(C2CCN(CCCCNC(=O)c3ccc(NC(=O)c4ccc(Cl)cc4)cc3)CC2)c(OC)c1", "melting point": 235}
{"smiles": "NC(=O)c1cccc(C(=O)Nc2ccc(-n3nc(C(F)(F)F)cc3C(F)(F)F)cc2)c1", "melting point": "244 to 245"}
{"smiles": "NC(=O)c1cc(Oc2cccc(CO)c2)ccn1", "melting point": 113}
{"smiles": "CC(C)(C)NC(=O)NC1(C#N)CCCC1", "melting point": "206 to 207"}
{"smiles": "CCOC(=O)c1c(C(F)(F)F)nc(C(F)(F)F)c(C(=O)OCC)c1C", "melting point": "55 to 58"}
{"smiles": "Cc1c(-c2ccc(O)cc2)sc(C=O)c1-c1ccc(O)cc1", "melting point": "223 to 225"}
{"smiles": "O=S(=O)(c1ccc(O)cc1)c1ccccn1", "melting point": 148}
{"smiles": "CCN(CC)c1ncc(C(=O)O)c2[nH]nc(C)c12", "melting point": "85 to 88"}
{"smiles": "COc1ccc(-c2nc(NS(=O)(=O)c3ccc(C(C)(C)C)cc3)c(Oc3ccccc3OC)c(OC[C@@H](O)CO)n2)cc1", "melting point": "141 to 142"}
{"smiles": "O=C(/C=C/c1ccc(O)cc1)C(F)(F)F", "melting point": "106 to 107"}
{"smiles": "CCCCC1=N/C(=C\\c2c[nH]c3ncc(Cl)cc23)C(=O)N1C", "melting point": "295 to 300"}
{"smiles": "COc1ccc(/C=C/C(=O)/C=C/C(=O)O)cc1", "melting point": 104}
{"smiles": "CCCC(=O)c1cnc(C(CC2CCCC2)c2ccc(S(C)(=O)=O)cc2)[nH]1", "note": "(stereo not drawn)", "melting point": "159 to 163"}
{"smiles": "O=C1Nc2ccccc2C1c1ncnc2c1cnn2C1CCCC1", "note": "(stereo not drawn)", "melting point": "228 to 231"}
{"smiles": "CC(=O)c1c(C=O)[nH]c(-c2ccncc2)c1C", "melting point": "208 to 209"}
{"smiles": "C#CC(Cn1ncnn1)n1nnc2cc3c(=O)n(C4CC4)nnc3cc2c1=O", "note": "(stereo not drawn)", "melting point": "224 to 225"}
{"smiles": "CC(C)(CCl)c1cc(Cl)nnc1Br", "melting point": "79 to 81"}
{"smiles": "O=[N+]([O-])c1cc(-n2cccc2)ccc1F", "melting point": "79 to 81"}
{"smiles": "CCOC(=O)C1(C(=O)OCC)CCC2(CC1)c1ccc(O)cc1CCN2C(=O)OCc1ccccc1", "melting point": "123 to 124"}
{"smiles": "CC(C)(C)NC(=O)Nc1nc2nc(S(C)(=O)=O)ncc2cc1-c1c(Cl)cccc1Cl", "melting point": "138 to 140"}
{"smiles": "O=C(C(=O)N1CCC(Oc2ccc(F)cc2)CC1)c1c[nH]c2ccccc12", "melting point": "205 to 207"}
{"smiles": "COC(=O)[C@H]1NC(=O)[C@H]1NC(=O)Cc1cccs1", "note": "(relative stereo)", "melting point": "133 to 136"}
{"smiles": "CC(C)(C)NCC(O)COc1ccc(-c2nc(C(N)=O)c[nH]2)cc1", "note": "(stereo not drawn)", "melting point": "149 to 154"}
{"smiles": "CN(C)Cc1cc(-c2c(-c3ccc(F)cc3)nn3c(Cl)cccc23)nc(NC2CCCC2)n1", "melting point": "68 to 75"}
{"smiles": "N#Cc1ccc(-c2csc(N3C(=O)OCC34CC4)n2)cc1", "melting point": "219 to 221"}
{"smiles": "Cc1cnc2cc(-c3cn(C)c4ccccc34)[nH]c2n1", "melting point": "170 to 175"}
{"smiles": "CCN(CC)CCCOc1ccc(C(=O)c2oc3ccccc3c2-c2ccccc2)cc1", "melting point": "122 to 126"}
{"smiles": "COCCCNC(=O)c1cc(Br)c(OCc2ccccc2)cc1OCc1ccccc1", "melting point": "104 to 106"}
{"smiles": "Cn1nnnc1SCC(=O)C12CC3CC(CC(C3)C1)C2", "melting point": "112 to 113"}
{"smiles": "C=Cn1cc(C(=O)O)c(=O)c2cc(F)c(N3CCNCC3)nc21", "melting point": "256 to 260"}
{"smiles": "OC(CCSC(=S)Nc1ccc(Cl)cn1)c1ccc(F)cc1", "note": "(stereo not drawn)", "melting point": 86}
{"smiles": "C=CC(=O)NCc1ccc(CC(=O)OCC)cc1", "melting point": "93 to 95"}
{"smiles": "O=c1c(-c2cccc(Cl)c2)c[nH]n1-c1cccc(C(F)(F)F)c1", "melting point": "190 to 192"}
{"smiles": "Cc1ccc(/C=C/C2=CCN(Cc3nc4ccccc4[nH]3)CC2)o1", "melting point": "191 to 193"}
{"smiles": "CC(C)(C(=O)O)c1cn2nc(CCCN3CCC(OC(c4ccccc4)c4ccccc4)CC3)ccc2n1", "melting point": "195 to 205"}
{"smiles": "CC(C)c1cc2cc(O)ccc2c(Oc2ccc(/C=C/C(=O)O)cc2)c1-c1ccccc1", "melting point": "198 to 199"}
{"smiles": "O=C(NC(=O)C(F)(F)F)c1ccccc1-c1noc(-c2ccccc2F)n1", "melting point": "119 to 120"}
{"smiles": "O=S(=O)(CCl)c1ccc(-n2cnnn2)cc1", "melting point": "168 to 172"}
{"smiles": "Cc1coc(-c2cccnc2)n1", "melting point": 40}
{"smiles": "Oc1ccc(Br)cc1CNc1cc(Cl)cc(Cl)c1", "melting point": "125 to 126"}
{"smiles": "C=CCOc1ccc(C)c2c1C(=O)CC2", "melting point": "89 to 92"}
{"smiles": "C#CCN1C(=O)COc2cc(F)c(-c3ncnc(C(F)(F)F)c3Cl)cc21", "melting point": "158 to 159"}
{"smiles": "FC(F)(F)c1cc(Cl)c(-c2nc(C(F)(F)F)c[nH]2)c(Cl)c1", "melting point": "213 to 215"}
{"smiles": "COC(=O)C1=C(C)N(CCCN2CCCCC2)c2cc[nH]c(=O)c2C1c1ccccc1C(F)(F)F", "note": "(stereo not drawn)", "melting point": "168 to 170"}
{"smiles": "COc1ccc(COc2ccc3c(c2)OC(C)(C)C3c2ccc(C(C)C)cc2)cc1", "note": "(stereo not drawn)", "melting point": "86 to 88"}
{"smiles": "CC1CN2N=C(c3cccc(C(F)(F)F)c3)C=CC2=N1", "note": "(stereo not drawn)", "melting point": "86 to 90"}
{"smiles": "COCC(COC)N1CCc2cc(Nc3ncc(Cl)c(Nc4ccc(C(N)=O)cc4OC)n3)c(OC)cc2CC1", "melting point": "220 to 223"}
{"smiles": "CC(=O)Nc1ccc(F)c(F)c1F", "melting point": "87 to 88"}
{"smiles": "C1CCC(CC2CNCCNCCNCCNCCN2)CC1", "note": "(stereo not drawn)", "melting point": "87 to 89"}
{"smiles": "CCCCc1nn2cc(C)nc2n1Cc1ccc(-c2ccccc2-c2nnn[nH]2)cc1", "melting point": "124 to 125"}
{"smiles": "CCCCCc1nc2ccc(C(=O)O)cc2c(=O)o1", "melting point": "185 to 190"}
{"smiles": "c1ccc2c(N3CCNCC3)nsc2c1", "melting point": "88 to 90"}
{"smiles": "CC(=O)NC[C@H]1CN(c2ccc(N3C[C@@H]4C[C@H]3CO4)c(F)c2)C(=O)O1", "melting point": "60 to 65"}
{"smiles": "CCOC(=O)C1=C(C)Nc2cncn2C1c1cccc([N+](=O)[O-])c1", "note": "(stereo not drawn)", "melting point": "196 to 197"}
{"smiles": "CC(=O)Nc1ccc(/C=C/C(=O)NCC(=O)Nc2ccc(Cl)c(COc3cccc4ccc(C)nc34)c2Cl)cn1", "melting point": "272 to 282"}
